According to PubChem BioAssay (NCI):
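Protocol summary: plate cells (96-well), add compound at 5 concentrations, incubate 48 h, interpolate endpoints linearly. GI50 is the concentration that inhibits growth by half. TGI marks complete inhibition of growth.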

Key:
Test in all cases: NCI-60 cell line screen, 48 h
OVCAR-4 ovarian = tested on: OVCAR-4 ovarian
HCT-15 colon = tested on: HCT-15 colon
LOX IMVI melanoma = tested on: LOX IMVI melanoma
SW-620 colon = tested on: SW-620 colon
NCI-H226 lung = tested on: NCI-H226 lung
SN12C renal = tested on: SN12C renal
HOP-62 NSCLC = tested on: HOP-62 NSCLC
MALME-3M melanoma = tested on: MALME-3M melanoma
RXF 393 renal = tested on: RXF 393 renal

SMILES | TGI (OVCAR-4 ovarian) | TGI (HCT-15 colon) | TGI (LOX IMVI melanoma) | TGI (SW-620 colon) | TGI (NCI-H226 lung) | TGI (SN12C renal) | TGI (HOP-62 NSCLC) | TGI (MALME-3M melanoma) | TGI (RXF 393 renal) | GI50 (SW-620 colon) | GI50 (SN12C renal) | GI50 (RXF 393 renal)
COc1cccc(NC(=S)Nn2c(C)nc3ccccc3c2=O)c1 | > 100 µM | > 100 µM | > 100 µM | > 100 µM | > 100 µM | > 100 µM | > 100 µM | > 100 µM | > 100 µM | – | – | –
CCCc1cc(=O)oc2c3c(c4c(c12)OC(C)(C)C=C4)O[C@@H](C)[C@H](C)C3=O | – | 46.1 µM | 37.3 µM | 32.2 µM | 41.6 µM | 41.4 µM | 35.5 µM | 35.6 µM | – | – | – | –
CCC1=CC2CN3CCc4c([nH]c5ccccc45)C(C(=O)OC)(C2)C13 (stereo not drawn) | 75.3 µM | 90.8 µM | 121 µM | 82.7 µM | 23.4 µM | 89.3 µM | 86.1 µM | 92.8 µM | 78.7 µM | – | – | –
CCCCc1c2c(nc3c1CCCC3O)/C(=C/c1ccccc1)CCC2 (stereo not drawn) | > 100 µM | 61.6 µM | 34.5 µM | 64.2 µM | 68 µM | 62.5 µM | > 100 µM | 44.8 µM | 71.7 µM | – | – | –
Cc1ccc(-c2c(C#N)c(S)n(NS(=O)(=O)c3ccc(C)cc3)c(=O)c2C#N)cc1 | 36.4 µM | 40.4 µM | > 100 µM | 39.3 µM | 39.6 µM | > 100 µM | – | 38.7 µM | 97.5 µM | – | – | –
CCCCCCOc1ccc(C(=O)NOCc2ccccc2)cc1 | > 100 µM | > 100 µM | > 100 µM | > 100 µM | > 100 µM | > 100 µM | > 100 µM | – | > 100 µM | – | – | –
N#Cc1c(-c2ccco2)cc(-c2ccc(NCc3nc4ccccc4[nH]3)cc2)nc1N | 66.3 µM | 69.2 µM | 32.7 µM | > 100 µM | – | 59.6 µM | 62.8 µM | 51.5 µM | 68.5 µM | – | – | –
CCOC(=O)c1c(C)c2c(n1C)CCc1cn[nH]c1-2 | > 100 µM | > 100 µM | > 100 µM | > 100 µM | > 100 µM | > 100 µM | > 100 µM | > 100 µM | > 100 µM | – | – | –
COc1nc(SC)nc2c1cnn2C1OC(C(O)CO)C(OC)C1O (stereo not drawn) | > 100 µM | > 100 µM | > 100 µM | > 100 µM | > 100 µM | > 100 µM | > 100 µM | > 100 µM | > 100 µM | – | – | –
COC(OC)c1cccc2c1C(=O)CCC1(O)c3ccccc3C1C2 (stereo not drawn) | > 100 µM | > 100 µM | > 100 µM | > 100 µM | > 100 µM | > 100 µM | > 100 µM | > 100 µM | – | – | – | –
CCCCC(C)C1CCC2(C)C=CC(=O)C(C)=C2C1O (stereo not drawn) | > 100 µM | > 100 µM | > 100 µM | > 100 µM | > 100 µM | > 100 µM | > 100 µM | – | > 100 µM | – | – | –
Nc1nc(SCCNC(=O)CCc2ccc(O)cc2)nc2c1ncn2C1OC(CO)C(O)C1O (stereo not drawn) | > 203 µM | > 203 µM | > 203 µM | > 203 µM | > 203 µM | > 203 µM | > 203 µM | > 203 µM | – | – | – | –
COc1cc(C2C(Cl)C(=O)N2NC(=O)c2ccccc2O)ccc1O (stereo not drawn) | – | > 100 µM | > 100 µM | – | > 100 µM | > 100 µM | – | > 100 µM | > 100 µM | – | – | –
COc1cc2c(c(C)c1O)[C@H]1COc3ccccc3[C@H]1O2 | 89.3 µM | 18.5 µM | 14.7 µM | – | 34.5 µM | – | > 100 µM | 89.1 µM | 54 µM | – | – | –
CCCn1c(SCC)c2ccccc2c1-c1nc(F)nc(F)n1 | > 100 µM | > 100 µM | > 100 µM | > 100 µM | > 100 µM | > 100 µM | > 100 µM | > 100 µM | > 100 µM | – | – | –
NCCCNc1nc2ccccc2c2c(=O)c3cc(C(F)(F)F)ccc3sc12 | – | – | – | 3.18 µM | – | 3.23 µM | – | – | 2.72 µM | 1.69 µM | 1.73 µM | 1.38 µM
CSc1nc(-c2cc3c(c(SC)n2)CCCCC3)cc2c1CCCCC2 | > 100 µM | > 100 µM | > 100 µM | > 100 µM | > 100 µM | > 100 µM | > 100 µM | – | > 100 µM | – | – | –
CC1OC(OC2C(O[C@H]3CC[C@@]4(C)[C@@H](CC[C@@H]5[C@@H]4CC[C@]4(C)[C@@H]6[C@H](C[C@@H]54)O[C@]4(CC[C@@H](C)CO4)[C@H]6C)C3)OC(CO)C(OC3OC(CO)C(O)C(OC4OCC(O)C(O)C4O)C3OC3OCC(O)C(O)C3O)C2O)C(O)C(O)C1O (stereo partly drawn) | 2.89 µM | 2.61 µM | 2.91 µM | 0.348 µM | 3.58 µM | – | 2.03 µM | 2.63 µM | 1.85 µM | – | – | –
COC1=CC(=O)[C@H]2[C@H](C)C(c3ccccc3)[C@@]2(C)C1=O (stereo partly drawn) | > 100 µM | > 100 µM | > 100 µM | > 100 µM | – | – | > 100 µM | > 100 µM | > 100 µM | – | – | –
CC(OC(=O)NCn1cc(-c2ccccc2)nn1)c1ccccc1 (stereo not drawn) | – | > 100 µM | > 100 µM | > 100 µM | 56.4 µM | > 100 µM | > 100 µM | 89.9 µM | – | – | – | –
